Source: BindingDB's records for doi:10.1016/s0196-9781(98)00133-8 (Synaptic Pharmaceutical, 1998)
Non-standard residues stand in square brackets, D forms with d. Residues, ends and D or L forms follow the SMILES beside them.

The compounds below were run against T1, Galanin receptor type 2 (Homo sapiens, UniProt O43603).
T1 sequence (O43603 whole entry): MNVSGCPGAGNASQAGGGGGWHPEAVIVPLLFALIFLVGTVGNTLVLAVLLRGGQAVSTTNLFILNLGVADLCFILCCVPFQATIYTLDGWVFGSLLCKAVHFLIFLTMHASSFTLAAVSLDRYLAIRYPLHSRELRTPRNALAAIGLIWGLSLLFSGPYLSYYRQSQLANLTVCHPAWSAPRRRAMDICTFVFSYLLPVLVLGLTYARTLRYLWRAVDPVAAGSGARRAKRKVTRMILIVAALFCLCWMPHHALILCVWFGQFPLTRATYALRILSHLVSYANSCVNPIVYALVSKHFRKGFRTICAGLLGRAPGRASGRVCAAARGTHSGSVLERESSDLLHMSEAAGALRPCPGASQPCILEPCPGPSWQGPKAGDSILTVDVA

Compound	Ki [nM]
CC(C)C[C@H](NC(=O)[C@H](CC(C)C)NC(=O)[C@H](Cc1ccc(O)cc1)NC(=O)CNC(=O)[C@H](C)NC(=O)[C@H](CO)NC(=O)[C@H](CC(N)=O)NC(=O)[C@H](CC(C)C)NC(=O)[C@@H](NC(=O)[C@H](Cc1c[nH]c2ccccc12)NC(=O)CN)[C@@H](C)O)C(=O)NCC(=O)N1CCC[C@H]1C(=O)N1CCC[C@H]1C(=O)N1CCC[C@H]1C(=O)NCC(=O)N[C@@H](Cc1ccccc1)C(=O)N[C@@H](CO)C(=O)N1CCC[C@H]1C(=O)N[C@@H](Cc1ccccc1)C(=O)N[C@@H](CCCN=C(N)N)C(N)=O	1.95
CC[C@H](C)[C@H](NC(=O)[C@H](C)NC(=O)[C@H](Cc1c[nH]cn1)NC(=O)[C@@H]1CCCN1C(=O)CNC(=O)[C@H](CC(C)C)NC(=O)[C@H](CC(C)C)NC(=O)[C@H](Cc1ccc(O)cc1)NC(=O)CNC(=O)[C@H](C)NC(=O)[C@H](CO)NC(=O)[C@H](CC(N)=O)NC(=O)[C@H](CC(C)C)NC(=O)[C@@H](N)[C@@H](C)O)C(=O)N[C@@H](CC(=O)O)C(=O)N[C@@H](CC(N)=O)C(=O)N[C@@H](Cc1c[nH]cn1)C(=O)N[C@@H](CCCNC(=N)N)C(=O)N[C@@H](CO)C(=O)N[C@@H](Cc1ccccc1)C(=O)N[C@@H](Cc1c[nH]cn1)C(=O)N[C@@H](CC(=O)O)C(=O)N[C@@H](CCCCN)C(=O)N[C@@H](Cc1ccc(O)cc1)C(=O)NCC(=O)N[C@@H](CC(C)C)C(=O)N[C@@H](C)C(N)=O [Galanin (3-29), porcine]	1000
CC[C@H](C)[C@H](NC(=O)[C@H](C)NC(=O)[C@H](Cc1c[nH]cn1)NC(=O)[C@@H]1CCCN1C(=O)CNC(=O)[C@H](CC(C)C)NC(=O)[C@H](CC(C)C)NC(=O)[C@H](Cc1ccc(O)cc1)NC(=O)CNC(=O)[C@H](C)NC(=O)[C@H](CO)NC(=O)[C@H](CC(N)=O)NC(=O)[C@H](CC(C)C)NC(=O)[C@@H](NC(=O)[C@@H](N)Cc1c[nH]c2ccccc12)[C@@H](C)O)C(=O)N[C@@H](CC(=O)O)C(=O)N[C@@H](CC(N)=O)C(=O)N[C@@H](Cc1c[nH]cn1)C(=O)N[C@@H](CCCNC(=N)N)C(=O)N[C@@H](CO)C(=O)N[C@@H](Cc1ccccc1)C(=O)N[C@@H](CO)C(=O)N[C@@H](CC(=O)O)C(=O)N[C@@H](CCCCN)C(=O)N[C@@H](Cc1c[nH]cn1)C(=O)NCC(=O)N[C@@H](CC(C)C)C(=O)N[C@H](C(N)=O)[C@@H](C)O [Galanin Porcine 2-29]	2.88
H-GWTLNSAGYLLGPPPALALA-NH2 [M40]	4.07

Now those with a lower Ki, led by results:

Ki [nM]	Compound
1.07	COc1ccccc1N(CCOc1ccc(C)cc1)C(=O)CN1CCCCC1 [CAS_3043476]
0.63	CC(C)C[C@H](NC(=O)[C@H](CC(C)C)NC(=O)[C@@H](Cc1c[nH]c2ccccc12)NC(=O)[C@H](Cc1ccccc1)NC(=O)[C@@H](Cc1c[nH]c2ccccc12)NC(=O)[C@H](CCC(N)=O)NC(=O)[C@H](CCC(N)=O)NC(=O)[C@@H]1CCCN1C(=O)[C@H](CCCCN)NC(=O)[C@@H]1CCCN1C(=O)[C@@H](CCCN=C(N)N)NC(=O)[C@@H]1CCCN1C(=O)CNC(=O)[C@H](CC(C)C)NC(=O)[C@H](CC(C)C)NC(=O)[C@H](Cc1ccc(O)cc1)NC(=O)CNC(=O)[C@H](C)NC(=O)[C@H](CO)NC(=O)[C@H](CC(N)=O)NC(=O)[C@H](CC(C)C)NC(=O)[C@@H](NC(=O)[C@H](Cc1c[nH]c2ccccc12)NC(=O)CN)[C@@H](C)O)C(N)=O [Gal(1-13)-Std I] (H-GWTLNSAGYLLGP[dR]PKPQQ[dW]F[dW]LL-NH2)
1.62	CC[C@H](C)[C@H](NC(=O)[C@H](C)NC(=O)[C@H](Cc1cnc[nH]1)NC(=O)[C@@H]1CCCN1C(=O)CNC(=O)[C@H](CC(C)C)NC(=O)[C@H](CC(C)C)NC(=O)[C@H](Cc1ccc(O)cc1)NC(=O)CNC(=O)[C@H](C)NC(=O)[C@H](CO)NC(=O)[C@H](CC(N)=O)NC(=O)[C@H](CC(C)C)NC(=O)[C@@H](NC(=O)[C@H](Cc1c[nH]c2ccccc12)NC(=O)CN)[C@@H](C)O)C(=O)N[C@@H](CC(=O)O)C(=O)N[C@@H](CC(N)=O)C(=O)N[C@@H](Cc1cnc[nH]1)C(N)=O [Galanin rat]

The compounds below were run against T2, Galanin receptor type 3 (Homo sapiens, UniProt O60755).
T2 sequence (O60755 whole entry): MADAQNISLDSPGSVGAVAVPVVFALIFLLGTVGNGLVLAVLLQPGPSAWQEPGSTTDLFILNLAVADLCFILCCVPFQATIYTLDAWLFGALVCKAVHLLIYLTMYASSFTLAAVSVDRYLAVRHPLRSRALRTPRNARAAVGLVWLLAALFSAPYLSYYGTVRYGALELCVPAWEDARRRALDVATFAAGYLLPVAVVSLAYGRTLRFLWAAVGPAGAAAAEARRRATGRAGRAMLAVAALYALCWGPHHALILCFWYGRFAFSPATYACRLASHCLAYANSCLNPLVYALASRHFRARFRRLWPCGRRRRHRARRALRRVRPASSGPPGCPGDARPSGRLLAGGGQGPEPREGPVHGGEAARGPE

Ki [nM]	Compound
60.3	CC[C@H](C)[C@H](NC(=O)[C@H](C)NC(=O)[C@H](Cc1c[nH]cn1)NC(=O)[C@@H]1CCCN1C(=O)CNC(=O)[C@H](CC(C)C)NC(=O)[C@H](CC(C)C)NC(=O)[C@H](Cc1ccc(O)cc1)NC(=O)CNC(=O)[C@H](C)NC(=O)[C@H](CO)NC(=O)[C@H](CC(N)=O)NC(=O)[C@H](CC(C)C)NC(=O)[C@@H](NC(=O)[C@@H](N)Cc1c[nH]c2ccccc12)[C@@H](C)O)C(=O)N[C@@H](CC(=O)O)C(=O)N[C@@H](CC(N)=O)C(=O)N[C@@H](Cc1c[nH]cn1)C(=O)N[C@@H](CCCNC(=N)N)C(=O)N[C@@H](CO)C(=O)N[C@@H](Cc1ccccc1)C(=O)N[C@@H](CO)C(=O)N[C@@H](CC(=O)O)C(=O)N[C@@H](CCCCN)C(=O)N[C@@H](Cc1c[nH]cn1)C(=O)NCC(=O)N[C@@H](CC(C)C)C(=O)N[C@H](C(N)=O)[C@@H](C)O [Galanin Porcine 2-29]
